This note sets out measurements from patent US12589101B2, “Cyclodextrin protein drug conjugates” (Regeneron Pharmaceuticals, Inc., priority 2017, dated 2026).

A short description of data set [1]: Solubility of linker-payloads (LC-MS standard curve, saturated solution). To be noted: aqueous with cosolvent or surfactant or cyclodextrin, thermodynamic from solid, in 10% DMSO/H2O; read-out: Solubility in other solvents. The format is physicochemical.
Another data set concerns T1, LXR.
T1 construct: other: THP1/LXR-Luc/Her2 cells, 48-hour incubation, relative to free payload 1d; other: THP1/LXR-Luc/Her2 cells, 48-hour incubation; other: THP1/Her2/LXR-Luc cells; other: differentiated THP1/LXR-Luc cells, 48 hours; other: THP1/LXR-Luc cells, PMA
Briefly: THP1/LXR-Luc/Her2 bioassay (LXR activation, luciferase). Format: cell-based. To be noted: THP1/LXR-Luc/Her2 cells, 48-hour incubation. On the procedure:
To test the comparability of ADCs with and without CDs containing LXR agonists anti-HER2 Ab ADC with and without CD were tested for their ability to activate LXR in a THP1/LXR-Luc/Her2 bioassay. In the assay, either THP1/LXR-Luc cells or THP1/LXR-Luc/Her2 cells were seeded onto white 96 well plates at 30,000 cells/well in media containing RPMI supplemented with 10% FBS and pencillin/streptomycinin (complete media). Subsequently 3-fold serial dilutions of antibody drug conjugates, unconjugated antibodies, or free payloads were added to the cells at final concentration ranging from 100 nM to 0.01 nM. After a 48-hour incubation, luciferase activity was determined after the addition of One-Glo™ reagent (Promega, E6130) to each well of cells. Relative light units (RLUs) were measured on a Victor luminometer (PerkinElmer) and the EC50 values were determined using a four-parameter logistic equation over a 10-point dose response curve (GraphPad Prism).

The solubility is the dissolved amount per volume that the medium holds. What is called pEC50 is −log10 of the EC50, conventionally taken in molar units.

pEC50: −log10 of the molar value. Values after ≈ are worked out from the molar mass of the structure shown.

Take `CCCC1O[C@@H]2C[C@H]3[C@@H]4CCC5=CC(=O)C=C[C@]5(C)[C@H]4[C@@H](O)C[C@]3(C)[C@]2(C(=O)COc2ccc(NC(=O)[C@H](C)NC(=O)[C@@H](NC(=O)[C@@H](CCCCNC(=O)COC3CCCCCc4c3nnn4CC3OC4OC5C(CO)OC(OC6C(CO)OC(OC7C(CO)OC(OC8C(CO)OC(OC9C(CO)OC(OC3C(O)C4O)C(O)C9O)C(O)C8O)C(O)C7O)C(O)C6O)C(O)C5O)NC(=O)CCOCCOCCOCCOCCNC(=O)CCC(=O)N3Cc4ccccc4C#Cc4ccccc43)C(C)C)cc2)O1` (stereo partly drawn) [Ex46]: in data set [1], the solubility at 10 min is 100 µg/mL (≈ 39.7 µM).

The compound `C[C@]1(C(=O)NC(=O)[C@@]2(C)CCC[C@]3(C)c4cc(O)ccc4CC[C@@H]23)CCC[C@]2(C)c3cc(N)ccc3CC[C@@H]12` [Example 1d, (1S,4aS,10aR)-N-[(1S,4aS,10aR)-6-Amino-1,4a-dimethyl-1,2,3,4,4a,9,10,10a-octahydrophenanthrene-1-carbonyl]-6-hydroxy-1,4a-dimethyl-1,2,3,4,4a,9,10,10a-octahydrophenanthrene-1-carboxamide] had a pEC50 in the data set with LXR of 8.55. Further, the Maximal activation result in the data set with LXR (relative to free payload 1d) is listed as “Full activation”.
